Earlier results on 1 molecule are cited in patent US20230255882A1, “LONG-LASTING RESORBABLE SUBCUTANEOUS IMPLANT WITH SUSTAINED RELEASE OF PRE-CONCENTRATED PHARMACOLOGICALLY ACTIVE SUBSTANCE IN POLYMER FOR THE TREATMENT OF PARKINSONS DISEASE” (priority 2020, published 2023).

Structures are written as SMILES.

This data set has as its system Parkinson's disease. The following applies: intramuscular injection, 25 mg twice a week.

`NC(=O)C1=CN([C@@H]2O[C@H](COP(=O)(O)OP(=O)(O)OC[C@H]3O[C@@H](n4cnc5c(N)ncnc54)[C@H](OP(=O)(O)O)[C@@H]3O)[C@@H](O)[C@H]2O)C=CC1` [NADPH]: the motor symptoms entry is reported as “significant improvement in motor symptoms”.
